Patent US7122624B2, “Parathyroid hormone receptor ligands” (The United States of America as represented by the …, priority 1999, dated 2006)
Where two headings read alike, the source gives them in different places. Blank lines part the entries; values can stand above or below the molecule they belong to. Non-standard residues stand in square brackets, D forms with d. Residues, ends and D or L forms follow the SMILES beside them. Tyr(3-I) = N[C@@H](Cc1ccc(O)c(I)c1)C(=O)O; Nle = CCCC[C@H](N)C(=O)O

How the values were obtained:
[1] = biological target: T1, human PTH1 receptor (Homo sapiens, UniProt Q03431); assay: cAMP accumulation in HEK293 cells stably expressing the human PTH1 receptor (293PTH1); assay type: cell-based; parameters: expressed in transfected cells
T1 sequence (Q03431 27-593): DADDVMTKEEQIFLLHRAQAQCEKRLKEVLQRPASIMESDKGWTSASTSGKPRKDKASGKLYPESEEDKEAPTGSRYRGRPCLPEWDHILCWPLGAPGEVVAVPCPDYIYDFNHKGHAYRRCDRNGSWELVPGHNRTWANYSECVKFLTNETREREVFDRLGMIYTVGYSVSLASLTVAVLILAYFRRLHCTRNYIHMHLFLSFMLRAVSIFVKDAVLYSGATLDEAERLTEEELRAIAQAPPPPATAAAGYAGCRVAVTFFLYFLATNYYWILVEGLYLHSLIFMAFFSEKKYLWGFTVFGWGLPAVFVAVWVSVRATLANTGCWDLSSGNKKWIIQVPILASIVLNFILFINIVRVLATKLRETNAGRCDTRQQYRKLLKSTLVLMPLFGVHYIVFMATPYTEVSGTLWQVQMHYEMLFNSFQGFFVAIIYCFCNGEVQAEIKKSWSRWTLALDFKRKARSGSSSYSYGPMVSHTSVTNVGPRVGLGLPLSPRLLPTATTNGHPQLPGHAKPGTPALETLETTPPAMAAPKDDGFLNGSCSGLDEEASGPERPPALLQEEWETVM

[2] = biological target: T2, PTH2 receptor (Homo sapiens, UniProt P49190); assay: cAMP accumulation in HEK293 cells stably expressing the human PTH2 receptor (293PTH2); assay type: cell-based; parameters: expressed in transfected cells; conditions: 1 μM peptide
T2 sequence (P49190 25-550): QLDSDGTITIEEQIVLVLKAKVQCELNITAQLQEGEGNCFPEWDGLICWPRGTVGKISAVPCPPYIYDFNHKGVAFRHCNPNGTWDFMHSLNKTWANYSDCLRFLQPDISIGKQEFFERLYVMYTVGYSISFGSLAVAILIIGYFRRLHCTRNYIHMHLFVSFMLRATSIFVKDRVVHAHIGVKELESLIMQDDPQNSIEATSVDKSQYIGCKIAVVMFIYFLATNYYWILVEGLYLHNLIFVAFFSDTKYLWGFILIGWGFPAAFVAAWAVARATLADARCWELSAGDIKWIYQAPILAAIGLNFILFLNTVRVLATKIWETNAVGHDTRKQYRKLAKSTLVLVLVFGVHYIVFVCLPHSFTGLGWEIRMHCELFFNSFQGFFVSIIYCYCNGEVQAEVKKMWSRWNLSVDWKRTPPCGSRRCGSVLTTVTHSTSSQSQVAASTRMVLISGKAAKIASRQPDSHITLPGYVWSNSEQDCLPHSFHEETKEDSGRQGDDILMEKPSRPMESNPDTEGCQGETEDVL

[3] = biological target: T1, human PTH1 receptor; parameters: expressed in transfected cells; host or cells: COS-7 (transient); conditions: cited from earlier work
[4] = biological target: T1, human PTH1 receptor; assay: [125I]TIP(7–39) saturation and kinetic binding to the human PTH1 receptor in HEK293 cell membranes; parameters: expressed in transfected cells
Procedure: Binding of [^125I]TIP(7–39) to HEK293 membranes expressing the PTH1 receptor (FIGS. 21 and 22) was performed using rapid filtration to separate bound and free radioligand as described in Examples, using the assay buffer described above. Incubations were carried out in 96-well polypropylene plates. The incubation mixture was transferred to a polyvinylidene fluoride filtration plate (MAHVN45, Millipore, Bedford, Mass.) and the membranes collected by rapid filtration using a Millipore Multiscreen vacuum manifold. In saturation experiments, varying concentrations of [^125I]TIP(7–39) were incubated in triplicate with 10 μg membranes in the absence or presence of 1 μM unlabeled TIP(7–39) (for measurement of total binding and non-specific binding, respectively) for 1 hour at 21° C. In radioligand association experiments, radioligand and buffer were brought to 21° C. by incubation in a water bath for 15 minutes. Similarly pre-warmed membranes were then added to the wells at various time points and the assay wells harvested simultaneously. Non-specific binding in these experiments was defined using 300 nM unlabeled TIP(7–39), incubated with membranes and radioligand for 1 minute and 60 minutes. In the experiment in FIG. 23 a second, unlabeled ligand was included in the assay incubation in order to estimate the association and dissociation rate constants of the unlabeled ligand (see below). In dissociation experiments radioligand and membranes were equilibrated for 60 minutes prior to addition of unlabeled TIP(7–39) (300 nM final concentration) at various time points. All time points were harvested simultaneously. (As a result the shorter time points of the time course were equilibrated with radioligand for between 1 and 2 hours.) Non-specific binding was defined using 300 nM unlabeled TIP(7–39), which was included in the equilibration phase of the assay.
[^125I]TIP(7–39) saturation of the PTH1 receptor was analyzed as follows: First, non-specific binding (measured in the presence of 1 μM TIP(7–39)) was estimated as a fraction of the free radioligand concentration by linear regression. The values of KD and Bmax were obtained by fitting total binding data (measured in the absence of unlabeled ligand) to the following equation using Prism 2.01:
[^125I]TIP(7–39) association data (total binding) were fitted to a bi-exponential association equation to account for association to specific and non-specific sites (FIG. 23). This procedure was used because the value of non-specific binding measured after 60 minutes was slightly greater than the value measured after 1 minute. In the analysis the equilibrium level of non-specific binding was fixed at that measured at 60 minutes. The observed association rate constant for non-specific binding was high (>2 min^−1). The observed association rate of specific radioligand (L) binding (kon(obs)) was fitted by linear regression to the equation kon(obs)=koff+kon[L] where kon and koff are the association and dissociation rate constants respectively. [^125I]TIP(7–39) dissociation data were fitted to a mono-exponential dissociation equation.
The association and dissociation rate constants of unlabeled ligands were determined using the method devised by Motulsky and Mahan, Mol Pharmacol 25, 1–9, 1984, in which association of a radiolabeled antagonist ([^125I]TIP(7–39)) is measured in the presence of a fixed concentration of the unlabeled ligand. […]

[5] = biological target: T2, PTH2 receptor; assay: cAMP accumulation in COS-7 cells transiently expressing the human PTH2 receptor; assay type: cell-based; parameters: expressed in transfected cells; host or cells: COS-7 (transient); conditions: COS-7
From the text: Cell culture supplies were obtained from Life Technologies (Frederick, Md.) except for fetal bovine serum which was from Sigma (St. Louis, Mo.).
The constructs containing the cDNA sequences of the human PTH2 receptor and β-galactosidase have been previously described.
All peptides were purchased from either Bachem (Torrance, Calif.) or Peninsula Laboratories (Belmont, Calif.). The letters ‘b,’ ‘r’ and ‘h’ designate the peptide sequence as bovine, rat and human, respectively. […] [α-^32P]dCTP was purchased from ICN Biomedicals (Costa Mesa, Calif.). Bovine hypothalamic extract was prepared by acid extraction, gel-filtration and reverse-phase HPLC as previously described. […] Antagonist inhibitory potency was examined by measuring the concentration-dependence of rPTH(1–34)-stimulated cAMP accumulation in the presence and absence of antagonist.
Statistical comparison of two sample means was evaluated using the two-tailed Student's t-test. […] Antagonist inhibitory potency was quantified using the pA2, value, the negative logarithm of the concentration of antagonist that produces a two-fold decrease of agonist EC50. This was calculated using the following equation: pA2=((EC50/EC50′)−1)−log [antagonist]

[6] = biological target: T3, C-terminal hemaglutinin-tagged human PTH1 receptor (Homo sapiens, UniProt Q03431); assay: cAMP accumulation in COS-7 cells expressing a C-terminal hemaglutinin-tagged human PTH1 receptor; assay type: cell-based; conditions: COS-7; five experiments; read-out: Emax, % of the maximal response to rPTH(1–34)
T3 sequence (Q03431 27-593): T1 sequence (Q03431 27-593)

- stimulation of cAMP accumulation ([1]; 1 μM peptide): approximately 50 fold
- stimulation of cAMP accumulation [2]: approximately 50 fold
SMILES: CC[C@H](C)[C@H](NC(=O)[C@H](CCC(=O)O)NC(=O)[C@H](CO)NC(=O)[C@@H](NC(=O)[C@H](C)N)C(C)C)C(=O)N[C@@H](CCC(N)=O)C(=O)N[C@@H](CC(C)C)C(=O)N[C@@H](CCSC)C(=O)N[C@@H](Cc1c[nH]cn1)C(=O)N[C@@H](CC(N)=O)C(=O)N[C@@H](CC(C)C)C(=O)NCC(=O)N[C@@H](CCCCN)C(=O)N[C@@H](Cc1c[nH]cn1)C(=O)N[C@@H](CC(C)C)C(=O)N[C@@H](C)C(=O)N[C@@H](CO)C(=O)N[C@H](C(=O)N[C@@H](CCC(=O)O)C(=O)N[C@@H](CCCNC(=N)N)C(=O)N[C@@H](CCSC)C(=O)N[C@@H](CCC(N)=O)C(=O)N[C@@H](Cc1c[nH]c2ccccc12)C(=O)N[C@@H](CC(C)C)C(=O)N[C@@H](CCCNC(=N)N)C(=O)N[C@@H](CCCCN)C(=O)N[C@@H](CCCCN)C(=O)N[C@@H](CC(C)C)C(=O)N[C@@H](CCC(N)=O)C(=O)N[C@@H](CC(=O)O)C(=O)N[C@H](C(=O)N[C@@H](Cc1c[nH]cn1)C(=O)N[C@@H](CC(N)=O)C(=O)N[C@@H](Cc1ccccc1)C(=O)O)C(C)C)C(C)C [PTH]

- activation of the PTH1 receptor ([1]; 293PTH1 cells, cAMP): not detected
- koff ([4]; estimated by Equation 4 from [125I]TIP(7–39) association, read-out: dissociation rate constant of unlabeled ligand (converted)): 0.0005 s⁻¹
- EC50 ([5]; activation of adenylyl cyclase, figures in brackets): 5.2 nM
- agonist character ([5]; cAMP): partial agonists
- Emax ([5]; read-out: Emax, % of response to 1 μM hPTH(1-34), intrinsic activity): 37 ± 3%
- Emax [6]: 26 ± 4%
SMILES: CCCC[C@H](NC(=O)[C@H](CO)NC(=O)[C@H](CO)NC(=O)[C@H](CC(C)C)NC(=O)[C@H](Cc1c[nH]cn1)NC(=O)[C@H](CCCCN)NC(=O)CNC(=O)[C@H](CC(C)C)NC(=O)[C@H](CC(N)=O)NC(=O)[C@H](Cc1c[nH]cn1)NC(=O)[C@H](CCCC)NC(=O)[C@H](Cc1ccccc1)NC(=O)[C@H](CCC(N)=O)NC(=O)[C@@H](NC(=O)[C@H](CCC(=O)O)NC(=O)[C@@H](N)CO)[C@@H](C)CC)C(=O)N[C@@H](CCC(=O)O)C(=O)N[C@@H](CCCNC(=N)N)C(=O)N[C@H](C(=O)N[C@@H](CCC(=O)O)C(=O)N[C@@H](Cc1c[nH]c2ccccc12)C(=O)N[C@@H](CC(C)C)C(=O)N[C@@H](CCCNC(=N)N)C(=O)N[C@@H](CCCCN)C(=O)N[C@@H](CCCCN)C(=O)N[C@@H](CC(C)C)C(=O)N[C@@H](CCC(N)=O)C(=O)N[C@@H](CC(=O)O)C(=O)N[C@H](C(=O)N[C@@H](Cc1c[nH]cn1)C(=O)N[C@@H](CC(N)=O)C(=O)N[C@@H](Cc1ccc(O)cc1)C(N)=O)C(C)C)C(C)C [[Nle^8,18, Tyr^34]bPTH(3-34), [Nle^8,18, Tyr^34]bPTH(3–34) amide] (H-SEIQF[Nle]HNLGKHLSS[Nle]ERVEWLRKKLQDVHNY-NH2; N-terminus assumed)
- Bmax ([3]; homologous displacement experiments): 0.7 pmol/mg
- Kd ([3]; reported previously): 2 nM

- koff ([4]; directly measured from dissociation time course, read-out: dissociation rate constant (k2) (converted)): 0.00085 s⁻¹
- koff ([4]; estimate from the plot of kon(obs) vs. concentration of radioligand, read-out: dissociation rate constant (converted)): 0.00128 s⁻¹
- kon ([4]; held constant in Equation 4 analysis, read-out: association rate constant (k1) (converted)): 1.48e+06 M⁻¹ s⁻¹
- Bmax ([4]; saturation experiments, n=3): 1.3 ± 0.1 pmol/mg
SMILES: CSCC[C@H](NC(=O)[C@H](Cc1ccc(O)c(I)c1)NC(=O)[C@H](CO)NC(=O)[C@H](CC(N)=O)NC(=O)[C@H](CC(C)C)NC(=O)[C@H](Cc1c[nH]c2ccccc12)NC(=O)[C@H](Cc1c[nH]cn1)NC(=O)[C@H](CCCNC(=N)N)NC(=O)[C@H](CCCNC(=N)N)NC(=O)[C@H](CCC(=O)O)NC(=O)[C@H](CC(C)C)NC(=O)[C@H](C)NC(=O)[C@H](C)NC(=O)[C@H](CC(C)C)NC(=O)[C@H](CC(C)C)NC(=O)[C@H](CCCNC(=N)N)NC(=O)[C@H](C)NC(=O)[C@H](CCCNC(=N)N)NC(=O)[C@H](CCC(=O)O)NC(=O)[C@H](CCCNC(=N)N)NC(=O)[C@H](Cc1ccccc1)NC(=O)[C@H](C)NC(=O)[C@H](C)NC(=O)[C@@H](N)CC(=O)O)C(=O)N[C@@H](Cc1c[nH]cn1)C(=O)N[C@@H](CCCCN)C(=O)N[C@@H](CC(C)C)C(=O)N[C@@H](CC(C)C)C(=O)N[C@H](C(=O)N[C@@H](CC(C)C)C(=O)N[C@@H](CC(=O)O)C(=O)N[C@@H](C)C(=O)N1CCC[C@H]1C(=O)O)C(C)C [[^125I]TIP(7–39)] (H-DAAFRERARLLAALERRHWLNS[Tyr(3-I)]MHKLLVLDAP-OH; N-terminus and C-terminus assumed)
